PubChem BioAssay (NCI)
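All cell lines were grown in 96-well plates and treated with compound for 48 hours. GI50 marks 50% less growth. TGI is the concentration that stops growth completely.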

How the values were obtained:
Assay in all cases: NCI-60 cell line screen, 48 h
IGROV1 ovarian = system: IGROV1 ovarian
SNB-19 CNS = system: SNB-19 CNS
CCRF-CEM leukemia = system: CCRF-CEM leukemia
HL-60(TB) leukemia = system: HL-60(TB) leukemia
SK-MEL-28 melanoma = system: SK-MEL-28 melanoma
HCT-15 colon = system: HCT-15 colon
PC-3 prostate = system: PC-3 prostate
UACC-257 melanoma = system: UACC-257 melanoma
NCI-H226 lung = system: NCI-H226 lung
A549 NSCLC = system: A549 NSCLC
HT29 colon = system: HT29 colon
HOP-92 NSCLC = system: HOP-92 NSCLC
OVCAR-3 ovarian = system: OVCAR-3 ovarian
MCF7 breast = system: MCF7 breast
EKVX NSCLC = system: EKVX NSCLC
COLO 205 colon = system: COLO 205 colon
NCI-H522 lung = system: NCI-H522 lung
U251 CNS = system: U251 CNS
UACC-62 melanoma = system: UACC-62 melanoma
HOP-62 NSCLC = system: HOP-62 NSCLC
SK-MEL-2 melanoma = system: SK-MEL-2 melanoma
NCI-H460 lung = system: NCI-H460 lung
SW-620 colon = system: SW-620 colon
NCI-H23 lung = system: NCI-H23 lung
OVCAR-4 ovarian = system: OVCAR-4 ovarian
MDA-MB-435 = system: MDA-MB-435
SR leukemia = system: SR leukemia
SF-539 CNS = system: SF-539 CNS
LOX IMVI melanoma = system: LOX IMVI melanoma
KM12 colon = system: KM12 colon
M14 melanoma = system: M14 melanoma
RPMI-8226 leukemia = system: RPMI-8226 leukemia
TK-10 renal = system: TK-10 renal
ACHN renal = system: ACHN renal
SK-OV-3 ovarian = system: SK-OV-3 ovarian
HS 578T breast = system: HS 578T breast
SN12C renal = system: SN12C renal
MOLT-4 leukemia = system: MOLT-4 leukemia
NCI/ADR-RES ovarian = system: NCI/ADR-RES ovarian
OVCAR-5 ovarian = system: OVCAR-5 ovarian
T-47D breast = system: T-47D breast
786-0 renal = system: 786-0 renal
OVCAR-8 ovarian = system: OVCAR-8 ovarian
MDA-MB-231 breast = system: MDA-MB-231 breast
MALME-3M melanoma = system: MALME-3M melanoma
MDA-MB-468 breast = system: MDA-MB-468 breast
UO-31 renal = system: UO-31 renal
SF-268 CNS = system: SF-268 CNS
SK-MEL-5 melanoma = system: SK-MEL-5 melanoma
BT-549 breast = system: BT-549 breast
A498 renal = system: A498 renal
RXF 393 renal = system: RXF 393 renal
SNB-75 CNS = system: SNB-75 CNS
HCC-2998 colon = system: HCC-2998 colon
SF-295 CNS = system: SF-295 CNS
DU-145 prostate = system: DU-145 prostate
K-562 leukemia = system: K-562 leukemia
HCT-116 colon = system: HCT-116 colon
CAKI-1 renal = system: CAKI-1 renal

In the case of Cc1cccc(/C=C/c2ccc(NC(=S)NCCCCN(C)C)cc2)c1, the GI50 (IGROV1 ovarian) was 16.6 µM, the TGI (IGROV1 ovarian) was 31.2 µM and the GI50 (SNB-19 CNS) was 16.1 µM. The TGI (SNB-19 CNS) was 29.8 µM, the GI50 (CCRF-CEM leukemia) was 11.7 µM and the TGI (CCRF-CEM leukemia) was 37.3 µM. For the same compound, the GI50 (HL-60(TB) leukemia) was 8.41 µM, the TGI (HL-60(TB) leukemia) was 29.7 µM and the GI50 (SK-MEL-28 melanoma) was 15.6 µM. The TGI (SK-MEL-28 melanoma) was 29.3 µM, the GI50 (HCT-15 colon) was 11.9 µM and the TGI (HCT-15 colon) was 25.1 µM. The GI50 (PC-3 prostate) was 14.2 µM, the TGI (PC-3 prostate) was 32.2 µM and the GI50 (UACC-257 melanoma) was 18.1 µM. For the same compound, the TGI (UACC-257 melanoma) was 34.8 µM, the GI50 (NCI-H226 lung) was 14.9 µM and the TGI (NCI-H226 lung) was 31.2 µM. For the same compound, the GI50 (A549 NSCLC) was 18.4 µM, the TGI (A549 NSCLC) was 39.8 µM and the GI50 (HT29 colon) was 5.38 µM. It also gave a TGI (HT29 colon) of 29.9 µM, a GI50 (HOP-92 NSCLC) of 8.39 µM and a TGI (HOP-92 NSCLC) of 24.3 µM. For the same compound, the GI50 (OVCAR-3 ovarian) was 12.7 µM, the TGI (OVCAR-3 ovarian) was 26.1 µM and the GI50 (MCF7 breast) was 11.8 µM. It also gave a TGI (MCF7 breast) of 27.5 µM, a GI50 (EKVX NSCLC) of 16.2 µM and a TGI (EKVX NSCLC) of 31.2 µM. It also gave a GI50 (COLO 205 colon) of 15.6 µM, a TGI (COLO 205 colon) of 33.5 µM and a GI50 (NCI-H522 lung) of 15.9 µM. The TGI (NCI-H522 lung) was 33.5 µM, the GI50 (U251 CNS) was 16.1 µM and the TGI (U251 CNS) was 33.7 µM. It also gave a GI50 (UACC-62 melanoma) of 15.9 µM, a TGI (UACC-62 melanoma) of 29.6 µM and a GI50 (HOP-62 NSCLC) of 19 µM. For the same compound, the TGI (HOP-62 NSCLC) was 37.9 µM, the GI50 (SK-MEL-2 melanoma) was 18.5 µM and the TGI (SK-MEL-2 melanoma) was 34.9 µM. The GI50 (NCI-H460 lung) was 12.8 µM, the TGI (NCI-H460 lung) was 27.3 µM and the GI50 (SW-620 colon) was 14.8 µM. The TGI (SW-620 colon) was 29.5 µM, the GI50 (NCI-H23 lung) was 16.1 µM and the TGI (NCI-H23 lung) was 31.2 µM. The GI50 (OVCAR-4 ovarian) was 14.8 µM, the TGI (OVCAR-4 ovarian) was 29 µM and the GI50 (MDA-MB-435) was 13.9 µM. The TGI (MDA-MB-435) was 27.7 µM, the GI50 (SR leukemia) was 12.2 µM and the TGI (SR leukemia) was 39.2 µM. It also gave a GI50 (SF-539 CNS) of 13.4 µM, a TGI (SF-539 CNS) of 26.3 µM and a GI50 (LOX IMVI melanoma) of 11.6 µM. It also gave a TGI (LOX IMVI melanoma) of 25.4 µM, a GI50 (KM12 colon) of 16.5 µM and a TGI (KM12 colon) of 31.9 µM. It also gave a GI50 (M14 melanoma) of 15.4 µM, a TGI (M14 melanoma) of 31.6 µM and a GI50 (RPMI-8226 leukemia) of 20.1 µM. For the same compound, the TGI (RPMI-8226 leukemia) was 72.4 µM, the GI50 (TK-10 renal) was 20.7 µM and the TGI (TK-10 renal) was 38.5 µM. For the same compound, the GI50 (ACHN renal) was 16.3 µM, the TGI (ACHN renal) was 29.9 µM and the GI50 (SK-OV-3 ovarian) was 19.7 µM. For the same compound, the TGI (SK-OV-3 ovarian) was 36.4 µM, the GI50 (HS 578T breast) was 16.6 µM and the TGI (HS 578T breast) was 38.4 µM. For the same compound, the GI50 (SN12C renal) was 14.9 µM, the TGI (SN12C renal) was 29 µM and the GI50 (MOLT-4 leukemia) was 13.4 µM. It also gave a TGI (MOLT-4 leukemia) of 37.5 µM, a GI50 (NCI/ADR-RES ovarian) of 16.3 µM and a TGI (NCI/ADR-RES ovarian) of 32.3 µM. It also gave a GI50 (OVCAR-5 ovarian) of 15.5 µM, a TGI (OVCAR-5 ovarian) of 29.5 µM and a GI50 (T-47D breast) of 16.9 µM. For the same compound, the TGI (T-47D breast) was 36.9 µM, the GI50 (786-0 renal) was 14.9 µM and the TGI (786-0 renal) was 30.1 µM. For the same compound, the GI50 (OVCAR-8 ovarian) was 18.9 µM, the TGI (OVCAR-8 ovarian) was 38.1 µM and the GI50 (MDA-MB-231 breast) was 12.9 µM. For the same compound, the TGI (MDA-MB-231 breast) was 26.6 µM, the GI50 (MALME-3M melanoma) was 15.8 µM and the TGI (MALME-3M melanoma) was 29.6 µM. The GI50 (MDA-MB-468 breast) was 12.7 µM, the TGI (MDA-MB-468 breast) was 26.6 µM and the GI50 (UO-31 renal) was 14.2 µM. The TGI (UO-31 renal) was 27.3 µM, the GI50 (SF-268 CNS) was 13.8 µM and the TGI (SF-268 CNS) was 28.5 µM. The GI50 (SK-MEL-5 melanoma) was 15.9 µM, the TGI (SK-MEL-5 melanoma) was 29.4 µM and the GI50 (BT-549 breast) was 15.3 µM. For the same compound, the TGI (BT-549 breast) was 29.9 µM, the GI50 (A498 renal) was 13.5 µM and the TGI (A498 renal) was 27.4 µM. For the same compound, the GI50 (RXF 393 renal) was 11.3 µM, the TGI (RXF 393 renal) was 24.2 µM and the GI50 (SNB-75 CNS) was 9.05 µM. For the same compound, the TGI (SNB-75 CNS) was 21.9 µM, the GI50 (HCC-2998 colon) was 15.1 µM and the TGI (HCC-2998 colon) was 29.9 µM. For the same compound, the GI50 (SF-295 CNS) was 16.2 µM, the TGI (SF-295 CNS) was 31.5 µM and the GI50 (DU-145 prostate) was 15.1 µM. The TGI (DU-145 prostate) was 29.2 µM, the GI50 (K-562 leukemia) was 3.96 µM and the TGI (K-562 leukemia) was over 100 µM. It also gave a GI50 (HCT-116 colon) of 11 µM, a TGI (HCT-116 colon) of 29.6 µM and a GI50 (CAKI-1 renal) of 14.5 µM. It also gave a TGI (CAKI-1 renal) of 27.9 µM.
